Data reported in patent publication US12723039B2, “Small molecule inhibitors of SLC15A4 with anti-inflammatory activity” (THE SCRIPPS RESEARCH INSTITUTE, priority 2020, dated 2026).

Experiments:
[1] = biological target: T1, human SLC15A4 dileucine mutant (L14A, L15A, L318A, V319A) (Homo sapiens, UniProt Q8N697, L14A/L15A/L318A/V319A); experiment: SLC15A4 transport NFκB luciferase reporter assay in A549 cells; assay type: cell-based; conditions: for block of MDP transport in a dose-dependent fashion: FIG. 9; for suppression of MDP or Tri-DAP induced NFκB luciferase: A549 cells with membrane-trafficked SLC15A4 mutant
T1 construct: expressed in transfected cells
Source text: Development of SLC15A4-Transport Luciferase Reporter Assay. […] The precise substrate scope of endolysosomal SLC15A4 is not established. However, several studies have implicated SLC15A4 to be a transporter of the bacterial-derived peptidoglycans, such as MDP and Tri-DAP, which are ligands of the immune sensors NOD1 and NOD2^27-29, 48. Recently, it has been shown that disruption of the dileucine motifs (DE)-XXXL-(L/I) or DXXLL of SLC15A3^49 and SLC15A4^50 can result in successful targeting to the plasma membrane. Considering that NODs signal through the NFκB pathway, we sought to develop an NFκB reporter assay as a strategy to measure SLC15A4 transport in cells.
Briefly, both wildtype (WT) human SLC15A4 and a dileucine mutant (L14A, LISA, L318A, V319A) were cloned in frame with the mCherry using a (GGGGS)3 linker in the pLPC lentiviral backbone. Lentiviral vectors were packaged in psPAX2 and pMD2.G packing plasmids and used to generate stable cell lines expressing either SLC15A4 WT or membrane-trafficked SLC15A4 mutant A549 cells (FIG. 5A). Stable reporter cells were subsequently generated from these SLC15A4 cell lines using the Promega Dual-Luciferase Reporter system (pGLA4.32 [luc2P/NFκB-RE/Hygro]) containing five copies of an NF-κB response element. We confirmed the production of luciferase upon exposure to MDP or Tri-DAP NOD ligands ([…]), which is suppressed when exposed to either triptolide (an NF[…]B inhibitor, FIG. 5C) ML130 (NOD1 inhibitor, not shown) or GSK717 (NOD2 inhibitor, not shown).

SLC25A20 = biological target: T2, SLC25A20 (Homo sapiens, UniProt O43772); conditions: previously published work (ref. 46); cited from earlier work
T2 construct: endogenous in cells
T2 sequence (O43772 1-301): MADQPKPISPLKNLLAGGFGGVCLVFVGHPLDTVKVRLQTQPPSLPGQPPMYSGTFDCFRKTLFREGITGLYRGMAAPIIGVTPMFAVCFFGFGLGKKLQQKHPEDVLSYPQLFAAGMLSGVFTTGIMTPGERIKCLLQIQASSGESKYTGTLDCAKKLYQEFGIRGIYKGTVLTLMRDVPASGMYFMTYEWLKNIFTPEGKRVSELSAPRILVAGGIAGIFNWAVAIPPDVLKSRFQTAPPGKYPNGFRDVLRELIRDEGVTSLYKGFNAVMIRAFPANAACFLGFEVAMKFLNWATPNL

CpG (TLR9) = experiment: In vivo model of inflammation: CpG co-injection, serum cytokines; conditions: mice co-injected with compound and CpG (TLR9), single dose, serum after 6 hr
[2] = tested on: endogenous NOD signaling in mouse macrophages; experiment: Endogenous NOD signaling in mouse macrophages; assay type: cell-based; conditions: FIG. 11
[3] = tested on: endogenous NOD signaling in human macrophages; experiment: Endogenous NOD signaling in human macrophages; assay type: cell-based; conditions: FIG. 11

T1 sequence (Q8N697 whole entry L14A/L15A/L318A/V319A): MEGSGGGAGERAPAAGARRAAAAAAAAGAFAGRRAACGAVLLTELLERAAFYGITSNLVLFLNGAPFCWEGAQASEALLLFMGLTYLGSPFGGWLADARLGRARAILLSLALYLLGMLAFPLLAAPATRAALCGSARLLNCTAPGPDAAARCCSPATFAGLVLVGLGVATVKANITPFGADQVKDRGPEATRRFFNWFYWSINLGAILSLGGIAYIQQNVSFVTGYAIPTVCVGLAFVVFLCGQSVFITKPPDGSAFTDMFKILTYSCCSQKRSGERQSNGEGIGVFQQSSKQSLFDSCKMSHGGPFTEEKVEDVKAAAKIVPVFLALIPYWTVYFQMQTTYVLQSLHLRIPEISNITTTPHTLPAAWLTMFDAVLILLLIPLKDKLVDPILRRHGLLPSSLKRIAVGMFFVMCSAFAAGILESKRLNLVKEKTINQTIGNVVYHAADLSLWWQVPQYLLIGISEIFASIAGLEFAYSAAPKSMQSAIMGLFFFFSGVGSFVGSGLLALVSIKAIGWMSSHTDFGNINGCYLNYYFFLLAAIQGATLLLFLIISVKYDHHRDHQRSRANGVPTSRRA

In the case of `CCCC(=O)N(Cc1ccc2[nH]ccc2c1)C1Cc2ccccc2NC1=O` (stereo not drawn) [AJ2-18, N-((1H-indol-5-yl)methyl)-N-(2-oxo-1,2,3,4-tetrahydroquinolin-3-yl)butyramide], the “block of MDP transport in a dose-dependent fashion” value (from here on “block of MDP transport”) [1] is reported as “inactive controls”.
For `C#CCCC1(CCC(=O)Nc2ccc3oc(=O)ccc3c2)N=N1` [FFF 3], the “engagement of SLC25A20” value (SLC25A20) is given as “highly engages”.
For `Cc1ccc(S(=O)(=O)n2c(N)nc3ccccc32)cc1` [ML130, reference compound], the “suppression of MDP or Tri-DAP induced NFκB luciferase” value [1] was “suppressed”.
With `CCCC(=O)n1c(NCc2c[nH]c3ccc(Br)cc23)nc2ccccc21` [AJ2-3, 1-(2-(((5-bromo-1H-indol-3-yl)methyl)amino)-1H-benzo[d]imidazol-1-yl)butan-1-one] the “in vivo efficacy: serum cytokines after CpG” value (from here on “in vivo efficacy”) (CpG (TLR9)) was “active”.
For `CC(C)[C@]12O[C@H]1[C@@H]1O[C@]13[C@]1(O[C@H]1C[C@H]1C4=C(CC[C@@]13C)C(=O)OC4)[C@@H]2O` [triptolide, reference compound], the “suppression of MDP or Tri-DAP induced NFκB luciferase” value [1] was “suppressed”.
In the case of `Brc1ccc2[nH]cc(CNc3nc4ccccc4[nH]3)c2c1` [AJ2-3A, N-((5-bromo-1H-indol-3-yl)methyl)-1H-benzo[d]imidazol-2-amine], the “block of MDP transport” value [1] is reported as “active”.
With `CCCC(=O)N(Cc1ccc2[nH]ccc2c1)C1Cc2ccccc2C1` [AJ2-22, N-((1H-indol-5-yl)methyl)-N-(2,3-dihydro-1H-inden-2-yl)butyramide] the “block of MDP transport” value [1] was “inactive controls” and the “in vivo efficacy” value (CpG (TLR9)) was “inactive control”.
With `CCn1c2ccccc2c2cc(CNc3nc4ccccc4n3C)ccc21` [AJ2-30, N-((9-ethyl-9H-carbazol-3-yl)methyl)-1-methyl-1H-benzo[d]imidazol-2-amine] the “block of endogenous NOD signaling in mouse macrophages” value [2] was “active”, the “block of endogenous NOD signaling in human macrophages” value [3] was “active” and the “block of MDP transport” value [1] was “active”. For the same compound, the “in vivo efficacy” value (CpG (TLR9)) was “active”.
